Laboratory results taken from ChEMBL document CHEMBL1156020, “Synthesis and antiviral activity of HCV NS3/4A peptidomimetic boronic acid inhibitors” (Bioorg Med Chem Lett, 2009).

What was measured:
[1] = test system: Hepatitis C virus; experiment: Selectivity ratio of IC50 for HCV1b con1 wild type NS3/4A protease over IC50 for HCV1b con1 NS3/4A protease A156T mutant; set-up: species or system Hepacivirus hominis
[2] = Inhibition of HCV3a wild type NS3/4A protease after 20 mins by FRET-based assay; set-up: species or system Hepatitis C virus subtype 3a
[3] = test system: Hepatitis C virus; experiment: Selectivity ratio of IC50 for HCV1b con1 wild type NS3/4A protease over IC50 for HCV1b con1 NS3/4A protease A156S mutant; set-up: species or system Hepacivirus hominis
[4] = test system: Hepatitis C virus; experiment: Antiviral activity against HCV infected in human Huh-luc/neo-ET cells after 72 hrs by replicon assay; type: functional, organism-based, Hepacivirus hominis
[5] = Inhibition of HCV2a wild type NS3/4A protease after 20 mins by FRET-based assay; set-up: species or system Hepatitis C virus subtype 2a
[6] = test system: Hepatitis C virus; experiment: Inhibition of HCV1b con1 NS3/4A protease after 20 mins by FRET-based assay; set-up: species or system Hepacivirus hominis; conditions: Con1, 20 min
[7] = test system: Hepatitis C virus; experiment: Selectivity ratio of IC50 for HCV1b con1 wild type NS3/4A protease over IC50 for HCV1b con1 NS3/4A protease A156V mutant; set-up: species or system Hepacivirus hominis
[8] = test system: Hepatitis C virus; experiment: Selectivity ratio of IC50 for HCV1b con1 wild type NS3/4A protease over IC50 for HCV1b con1 NS3/4A protease T54A mutant; set-up: species or system Hepacivirus hominis
[9] = Inhibition of HCV1a wild type NS3/4A protease after 20 mins by FRET-based assay; set-up: species or system Hepatitis C virus subtype 1a
[10] = test system: Hepatitis C virus; experiment: Selectivity ratio of IC50 for HCV1b con1 wild type NS3/4A protease over IC50 for HCV1b con1 NS3/4A protease D168A mutant; set-up: species or system Hepacivirus hominis
[11] = test system: Hepatitis C virus; experiment: Selectivity ratio of IC50 for HCV1b con1 wild type NS3/4A protease over IC50 for HCV1b con1 NS3/4A protease R155K mutant; set-up: species or system Hepacivirus hominis

CCC[C@H](NC(=O)[C@@H]1C[C@@H](OC(=O)N2Cc3ccccc3C2)CN1C(=O)[C@@H](NC(=O)OC(C)(C)C)C(C)(C)C)B(O)O
Ratio IC50 [1]: 70 | IC50 [2]: 0.061 µM | Ratio IC50 [3]: 5 | EC50 [4]: 0.069 µM | IC50 [5]: 0.021 µM | IC50 [6]: 0.001 µM | Ratio IC50 [7]: 158 | Ratio IC50 [8]: 121 | IC50 [9]: 0.002 µM | Ratio IC50 [10]: 61 | Ratio IC50 [11]: 109

CC(C)(C)OC(=O)N[C@H](C(=O)N1C[C@H](OC(=O)N2Cc3ccccc3C2)C[C@H]1C(=O)NC1(B(O)O)CC1)C1CCCCC1
IC50 [6]: 3.35 µM

CCC[C@H](NC(=O)[C@@H]1C[C@@H](OC(=O)N2Cc3ccccc3C2)CN1C(=O)[C@@H](NC(=O)OC(C)(C)C)C1CCCCC1)B(O)O
EC50 [4]: 0.11 µM | IC50 [6]: 0.002 µM

CCC[C@H](NC(=O)[C@@H]1C[C@@H](OC(=O)N2Cc3ccccc3C2)CN1C(=O)[C@@H](NC(=O)N[C@H](CN(C)S(C)(=O)=O)C(C)(C)C)C(C)(C)C)B(O)O
Ratio IC50 [1]: <4 | IC50 [2]: 0.0009 µM | Ratio IC50 [3]: <4 | EC50 [4]: 0.025 µM | IC50 [5]: 0.0006 µM | IC50 [6]: 0.0005 µM | Ratio IC50 [7]: 12 | Ratio IC50 [8]: 8 | IC50 [9]: 0.0003 µM | Ratio IC50 [10]: <4 | Ratio IC50 [11]: 6

CC(C)(C)OC(=O)N[C@H](C(=O)N1C[C@H](OC(=O)N2Cc3ccccc3C2)C[C@H]1C(=O)N[C@@H](CC1CCC1)B(O)O)C(C)(C)C
EC50 [4]: 0.171 µM | IC50 [6]: 0.002 µM

CCC[C@H](NC(=O)[C@@H]1C[C@@H](OC(=O)N2Cc3ccccc3C2)CN1C(=O)[C@@H](NC(=O)OC(C)(C)C)C(C)(C)C)B1O[C@@H]2C[C@@H]3C[C@@H](C3(C)C)[C@]2(C)O1
EC50 [4]: 0.093 µM | IC50 [6]: 0.0008 µM

CCC[C@H](NC(=O)[C@@H]1C[C@@H](OC(=O)N2Cc3ccccc3C2)CN1C(=O)[C@@H](NC(=O)OCC)C(C)(C)C)B1O[C@@H]2C[C@@H]3C[C@@H](C3(C)C)[C@]2(C)O1
EC50 [4]: 0.23 µM | IC50 [6]: 0.002 µM

CCC[C@H](NC(=O)[C@@H]1C[C@@H](OC(=O)N2Cc3ccccc3C2)CN1C(=O)[C@@H](NC(=O)OCCN1CCCC1)C(C)(C)C)B1O[C@@H]2C[C@@H]3C[C@@H](C3(C)C)[C@]2(C)O1
EC50 [4]: > 1 µM | IC50 [6]: 0.005 µM

CCC[C@H](NC(=O)[C@@H]1C[C@@H](OC(=O)N2Cc3ccccc3C2)CN1C(=O)[C@@H](NC(=O)OCC(C)C)C(C)(C)C)B1O[C@@H]2C[C@@H]3C[C@@H](C3(C)C)[C@]2(C)O1
EC50 [4]: 0.054 µM | IC50 [6]: 0.0003 µM

CC[C@H](NC(=O)[C@@H]1C[C@@H](OC(=O)N2Cc3ccccc3C2)CN1C(=O)[C@@H](NC(=O)OC(C)(C)C)C(C)(C)C)B(O)O
EC50 [4]: 0.098 µM | IC50 [6]: 0.002 µM

CCC[C@H](NC(=O)[C@@H]1C[C@@H](OC(=O)N2Cc3ccccc3C2)CN1C(=O)[C@@H](NC(=O)OCCF)C(C)(C)C)B1O[C@@H]2C[C@@H]3C[C@@H](C3(C)C)[C@]2(C)O1
EC50 [4]: 0.408 µM | IC50 [6]: 0.002 µM

CCC[C@H](NC(=O)[C@@H]1C[C@@H](OC(=O)N2Cc3ccccc3C2)CN1C(=O)[C@@H](N)C(C)(C)C)B1O[C@@H]2C[C@@H]3C[C@@H](C3(C)C)[C@]2(C)O1
IC50 [6]: 3.2 µM

CCC[C@H](NC(=O)[C@@H]1C[C@@H](OC(=O)N2Cc3ccccc3C2)CN1C(=O)[C@@H](NC(=O)C(O)C(C)(C)C)C(C)(C)C)B1O[C@@H]2C[C@@H]3C[C@@H](C3(C)C)[C@]2(C)O1 (some centres undefined)
EC50 [4]: > 1 µM | IC50 [6]: 0.003 µM

CCC[C@H](NC(=O)[C@@H]1C[C@@H](OC(=O)N2Cc3ccccc3C2)CN1C(=O)[C@@H](NS(C)(=O)=O)C(C)(C)C)B1O[C@@H]2C[C@@H]3C[C@@H](C3(C)C)[C@]2(C)O1
EC50 [4]: > 1 µM | IC50 [6]: 0.011 µM

CCC[C@H](NC(=O)[C@@H]1C[C@@H](OC(=O)N2Cc3ccccc3C2)CN1C(=O)[C@@H](NC(=O)NCCN(CC)CC)C(C)(C)C)B1O[C@@H]2C[C@@H]3C[C@@H](C3(C)C)[C@]2(C)O1
EC50 [4]: > 1 µM | IC50 [6]: 0.027 µM

CCC[C@H](NC(=O)[C@@H]1C[C@@H](OC(=O)N2Cc3ccccc3C2)CN1C(=O)[C@@H](NC(=O)OCC(C)(C)C)C(C)(C)C)B1O[C@@H]2C[C@@H]3C[C@@H](C3(C)C)[C@]2(C)O1
EC50 [4]: 0.041 µM | IC50 [6]: 0.0007 µM

CC[C@H](NC(=O)[C@@H]1C[C@@H](OC(=O)N2Cc3ccccc3C2)CN1C(=O)[C@@H](NC(=O)OC(C)(C)C)C1CCCCC1)B(O)O
Ratio IC50 [1]: 40 | IC50 [2]: 0.023 µM | Ratio IC50 [3]: 4 | EC50 [4]: 0.071 µM | IC50 [5]: 0.006 µM | IC50 [6]: 0.001 µM | Ratio IC50 [7]: 64 | Ratio IC50 [8]: 69 | IC50 [9]: 0.0009 µM | Ratio IC50 [10]: 47 | Ratio IC50 [11]: 63
